# Source: patent US20220040253A1, “Agonists of Human Kisspeptin Receptor for Modulating Sexual Desire” (Université de Liège, priority 2019, published 2022)
# Entries after “also recorded” stand apart in the source; their conditions may differ. No end group written: not given here.
# Assays:
# [1] = test system: human female patients diagnosed with HSDD; experiment: Brain activation by BOLD MRI while watching erotic pictures; format: in vivo; details: single sc injection 6.4 nmol/kg; scan 30 minutes after injection; versus saline session
# Experimental: 20 human female patients diagnosed with HSDD receive either a single subcutaneous (sc) injection of kisspeptin-54 (SEQ ID NO: 17) at a dose of 6.4 nmol/kg of body weight or a sc injection of a saline (i.e. control). The sexual desire of the patients is measured by determining their brain activation using magnetic resonance imaging (MRI) with the blood-oxygenation-level-dependent (BOLD) technique to identify and quantify brain regions associated with visually evoked sexual arousal in women. All female patients are subjected to two sessions on separate days with at least 1 month in between the sessions to act as their own control. They receive in one session kisspeptin-54 and in the other one saline, the order will be randomized. Female patients are positioned into the MRI scanner 30 minutes after the sc injection and three dimensional images are taken of the brain when watching a series of erotic pictures as well as more neutral pictures to serve as control condition using an event-related design. The task is followed by an anatomical scan in which high resolution T1-weighted images are taken to determine the anatomical boundaries of the activation observed during the visual task.
# [2] = test system: human female patients diagnosed with HSDD; experiment: Vaginal photoplethysmography (vaginal blood flow) while watching erotic or neutral images; format: in vivo; details: single sc injection 6.4 nmol/kg
# Experimental: 20 human female patients diagnosed with HSDD receive either a single subcutaneous (sc) injection of kisspeptin-54 (SEQ ID NO: 17) at a dose of 6.4 nmol/kg of body weight or a sc injection of saline (i.e. control). The sexual desire of the patients is measured using vaginal photoplethysmography, which has been used to assess female genital arousal. It consists of a tampon-sized acrylic device containing a light emitting diode and a phototransistor to detect light to measure vaginal blood flow with increased sexual desire leading to increased vaginal blood flow. The sexual desire of the patients is scored starting 15 minutes after administration of sc kisspeptin or saline when watching either erotic images or neutral images. […] Any effects of kisspeptin on sexual desire disappear by 4 h after the injection.
# female mice [3] = experiment: Mate preference test (three-compartment box, preference score); format: in vivo, mouse
# Experimental: (§1) Unless otherwise stated, females were ovariectomized in adulthood (>8 weeks of age) under general anesthesia after either subcutaneous (sc) injections of ketamine (80 mg kg^−1 per mouse) and medetomidine (Domitor, Pfizer, 1 mg kg^−1 per mouse) or under 5% isoflurane, in order to control for endogenous hormone concentrations and to prevent pregnancies upon repeated testing. At the same time, all females received a 5 mm-long Silastic capsule (inner diameter: 1.57 mm; outer diameter: 2.41 mm) containing crystalline 17β-estradiol (diluted 1:1 with cholesterol) subcutaneously in the neck. The dose of E2 (E8875, Sigma) was based on a previous study^62 showing that this treatment leads to estradiol levels similar to mice in estrus. At the end of surgery, females under ketamine/medetomidine anesthesia received a sc injection of atipamezole (Antisedan, Pfizer, 4 mg kg^−1 per mouse) to antagonize medetomidine-induced effects and accelerate recovery. In order to induce sexual receptivity at the day of testing, all females received a subcutaneous injection with progesterone (500 μg, P0130, Sigma) 3 h before the onset of the behavioral test, unless stated otherwise (for overview of all the different hormone treatments, see Table 1).
# (§2) Kisspeptin-10 (Kp-10) was synthesized in Strasbourg, France (Sequence: Tyr-Asn-Trp-Asn-Ser-Phe-Gly-Leu-Arg-Tyr-NH2, NeoMPS; weight=25.7 mg). To determine whether kisspeptin stimulated female sexual behavior in wildtype C57BL/6J mice, females received a sc injection of Kp-10 at the dose of 0.52 μg kg^−1 (injection volume 100 μl) 2h before the lordosis test. Each animal was used as its own control, i.e. the animal was injected one day with Kp-10 and the other day with saline. Females were not injected with progesterone in this particular experiment. Injections were separated by at least 3 days.
# Two hours before mate preference test, female mice received a single sc injection of GnRH (0.025 mg kg^−1, Polypeptide Laboratories France SAS, SC087).
# S-nitroso-N-acetyl-DL-Penicillamine (SNAP) (N398-Sigma) is a NO donor. […]
# To assess mate preferences shown in response to auditory and olfactory stimuli, we used a box (60 cm long×30 cm high×13 cm wide) that was divided into three compartments using perforated opaque partitions. […] The time the subject spent poking her nose through the holes of the partition or actively sniffing the bottom of the partition in front of the female versus male stimulus animal was recorded. A preference score was calculated by dividing the time spent investigating the male compartment minus the time spent investigating the female compartment by the total time spent investigating both compartments. […]
# female mice [4] = experiment: Lordosis test without photostimulation (lordosis quotient); format: in vivo, mouse
# Experimental: as §1, with “1). […]” for “1).”
# as §2, with “days. […]” for “days.”
# Females were subjected to weekly lordosis tests in a Plexiglas aquarium (37 cm long×17 cm high×21 cm wide). A sexually experienced male was placed alone in the aquarium and allowed to adapt for 15 min. Subsequently, 3 h after receiving a subcutaneous progesterone injection (500 μg, P0130, Sigma) to induce behavioral estrus, the lordosis responses of the female to the mounts of the stimulus male were recorded. The test lasted until the female received 10 mounts or 10 min had elapsed. For the first experiment (mating-induced Fos activation) ovary intact females were paired with males during 30 minutes. […] Before each experimental condition (drug injection, cell ablation, optogenetic stimulation), all females were subjected to at least three lordosis tests (with progesterone) in order to acquire sufficient sexual experience and thus a significant LQ. Tests were performed during the dark phase of the light cycle (5 h after lights out; for details, see^67). For all details on the different hormone treatments (estradiol versus estradiol+progesterone), see Table 1.
substance,measurement,setting,value
"kisspeptin-54: human kisspeptin-54, SEQ ID NO: 17, amino acids 68 to 121 of NP_002247.3 (GTSLSPPPESSGSPQQPGLSAPHSRQIPAPQGAVLVQREKDLPNYNWNSFGLRF; listed as Homo sapiens)",brain activation when watching the images (BOLD MRI),[1],show increased brain activation
same,time by which effects on sexual desire disappear after the injection,[2],≤ 4 h
same,vaginal blood flow when watching neutral images,[2]; scored from 15 minutes after administration,not when watching neutral images
same,vaginal blood flow when watching erotic images,"[2]; scored from 15 minutes after administration, versus saline",show increased vaginal blood flow
"GnRH: GnRH from Polypeptide Laboratories France SAS, SC087 (QHWSYGLRPG; Gonadoliberin-1; UniProt P01148 24-33, looked up) [reference compound]",male-directed preference (preference score),"female mice [3]; GnRH::Cre, Dicer loxP/loxP females (OVX+E), single sc injection 0.025 mg kg^-1, P=0.01, FIG. 9a",induced a male-directed preference; also recorded: restored this behavior
same,lordosis behavior,"female mice [4]; Kiss-/- (OVX+E) females, single injection, P=0.65, FIG. 9c",failed to stimulate lordosis behavior
same,lordosis behavior,"female mice [4]; nNOS-/- (OVX+E) females, sc injection, P=0.19, FIG. 11c",failed to restore lordosis behavior; also recorded: failed to stimulate lordosis behavior
"Tyr-Asn-Trp-Asn-Ser-Phe-Gly-Leu-Arg-Tyr-NH2 (YNWNSFGLRY-NH2) [Kp-10, Kisspeptin-10 synthesized in Strasbourg (NeoMPS), the decapeptide injected in mice]",male-directed preference (preference score),"female mice [3]; GnRH::Cre, Dicer loxP/loxP females (OVX+E+P), sc injection, P=0.38, FIG. 9a",failed to elicit a male-directed preference
same,male-directed preference (preference score),"female mice [3]; Kiss-/- (OVX+E+P) females, single sc injection 0.52 μg kg^-1, P<0.001, FIG. 1b",induced a very strong preference for the male; also recorded: triggered a male-directed preference
same,male-directed preference (preference score),"female mice [3]; KissIC Cre+ females (OVX+E+P) after AAV-Casp3 ablation of RP3V kisspeptin neurons, single sc injection, P=0.041, FIG. 1e",induced a male-directed preference; also recorded: sufficient to induce a male-directed preference
same,lordosis behavior,"female mice [4]; Kiss-/- (OVX+E+P) females with lordosis deficits, single sc injection, FIG. 4d",induced lordosis behavior; also recorded: could be reversed
same,lordosis behavior,"female mice [4]; WT C57BL/6J OVX+E females (no progesterone), sc 0.52 μg/kg 2 h before test, P<0.001, FIG. 4b",robustly stimulated lordosis behavior
same,lordosis behavior,"female mice [4]; WT C57Bl6 (OVX+E+P) females, intracerebroventricular 10.4 ng/kg 1 h before test, P=0.012, FIG. 6",stimulates lordosis behavior; also recorded: also stimulated lordosis behavior
same,lordosis behavior,"female mice [4]; nNOS-/- (OVX+E+P) females, sc injection, P=0.56, FIG. 11c",failed to restore lordosis behavior
same,lordosis behavior,"female mice [4]; nNOS-/- (OVX+E+P) females, sc injection, P=0.56, FIG. 11c, listed as KP-10",failed to stimulate lordosis behavior
